Columns and labels:
[1] = Biodistribution and renal clearance after injection into rats (bladder activity over time, dissection at 2 hr); format: in vivo; settings: for % in bladder of that at 2 hrs.: group value (4-8 animals)
Protocol: Solutions of complexes ^*1 and ^*2 from Example 1 were injected into rats and the biodistribution pattern noted. The results of these experiments in rats are summarised in Table 1 below, comparing the data on ^*1 and ^*2 with earlier data on TDG-Tc-99m, Hippuran -1-131 and DTPA-Tc-99m under identical conditions. In all cases, data from animal experiments was used only when the renal performance appeared "normal", i.e. no unilateral or bilateral renal retention. Data was also rejected in cases of significant retention of activity at the injection site.
The solution was filtered through a 0.22 micron membrane filter prior to administration to rats.
The solution was filtered through a 0.22 micron membrane filter prior to adminstration to rats.
A sealed nitrogen filled vial, containing the freeze dried formulation of 20mg TDG, 0.15 mg SnF2, 1 mg NaF and 0.5 mg sodium nitrate was treated with 2 ml of eluate from a technetium generator (6mCi/ml). The vial was allowed to stand at ambient temperature for 10 minutes, then heated in a boiling water bath for 15 minutes.

[2] = removal from the blood in a single pass through the kidney; cited from earlier work
[3] = dissection at 2 hr, group value

**Q.** What does the source list for `O=C(O)CNC(=O)c1ccccc1[131I]` [Hippuran-I-131, sodium iodo- hippurate, reference compound]?
**A.** hepatobiliary excretion [1]: some hepatobiliary excretion; Dissection at 2 hr; % of injected dose: Bladder [1, 3]: 93.0 % of injected dose; Dissection at 2 hr; % of injected dose: Kidneys [1, 3]: 0.2 % of injected dose; Dissection at 2 hr; % of injected dose: Liver [1, 3]: 0.2 % of injected dose; % in bladder of that at 2 hrs. ([1]; time 5 min): 33.4%; % in bladder of that at 2 hrs. ([1]; time 10 min): 53.8%; % in bladder of that at 2 hrs. ([1]; time 15 min): 63.9%; % in bladder of that at 2 hrs. ([1]; time 20 min): 72.4%; % in bladder of that at 2 hrs. ([1]; time 25 min): 80.5%; % in bladder of that at 2 hrs. ([1]; time 30 min): 85.0%; % in bladder of that at 2 hrs. ([1]; time 60 min): 93.0%; removed in a single pass [2]: About 80%
